# Data reported in US8188093B2, “Pyrazinecarboxamide derivatives as HDL-cholesterol raising agents” (Hoffmann-La Roche Inc., priority 2006, dated 2012).
# How the values were obtained:
# [1] = test system: obese male Sprague Dawley rats; assay: Effects on plasma lipid levels (HDL cholesterol) in obese, high fat diet fed rats; format: in vivo, rat; conditions: 28-29 days
# Description: Efficacy of compounds in modulating plasma lipid levels was determined also in obese male Sprague Dawley rats after 28-29 days administration of compounds. Male Sprague-Dawley rats of 10 weeks of age were fed a high fat diet during 3 weeks. Obese rats were distributed in groups according to homogeneous BW and FI evaluated a week before the start of the treatment. Treatment was administered as food-Admix. On day 29, blood was taken in the morning under slight anesthesia (retro-orbital method) in post-prandial conditions i.e. 4 h after food was removed. Plasma was separated from blood by low speed centrifugation and selected organs were taken (e.g. liver, fat). Total cholesterol, HDL-cholesterol, and triglycerides were determined by measuring total cholesterol, HDL-cholesterol and triglyceride using colorimetric enzymatic assays (Roche Diagnostic GmbH, Mannheim, Germany). HDL-C was also quantified using size exclusion chromatography on superpose-6 column using a SMART system (Pharmacia). Lipoprotein distribution was calculated assuming a Gaussian distribution for each peak, using a nonlinear, least-squares curve-fitting procedure to calculate the area under the curve (AUC). Compound concentration was also determined in plasma.
# [2] = test system: lean, chow-fed male Sprague-Dawley rats; assay: Effects on plasma lipid levels (HDL cholesterol) in lean, chow fed rats; format: in vivo, rat; conditions: 30 mg/kg p.o. of compound, once daily for five days, size exclusion chromatography AUC
# Description: Effects of compounds of formula I on plasma lipid levels were determined in lean, chow-fed male Sprague-Dawley rats with compounds administered by p.o. gavage. After one week of acclimation, blood samples were collected from 4 hour-fasted animals for plasma lipid determination. Animals were then assigned to treatment groups based on HDL-cholesterol levels. Compounds of formula I were administered by gavage, once daily for five days. Control animals received vehicle alone. Blood was collected on day five from 4 hour-fasted rats, 2 hours after a final treatment, for plasma lipid analysis. Total cholesterol, HDL-cholesterol, and triglycerides were determined by measuring total cholesterol, HDL-cholesterol, and triglyceride using colorimetric enzymatic assays (Roche Diagnostic GmbH, Mannheim, Germany). HDL-C was also quantified using size exclusion chromatography on superpose-6 column using a SMART system (Pharmacia). Lipoprotein distribution was calculated assuming a Gaussian distribution for each peak, using a nonlinear, least-squares curve-fitting procedure to calculate the area under the curve (AUC). Compound concentration was also determined in plasma.
# [3] = test system: hamsters; assay: Effects on plasma lipid levels (HDL cholesterol) in hamsters; format: in vivo, hamster; conditions: 30 mg/kg po of compound, once daily for five days
# Description: Efficacy of compounds in modulating plasma lipid levels was determined in hamsters after 5 days of daily administration of compounds. Male hamsters of 6-8 weeks of age were used in the studies. After one week of acclimation, blood samples were collected from 4 hour-fasted animals for plasma lipid determination. Animals were then assigned to treatment groups based on HDL-cholesterol levels. Compounds were administered by gavage, once daily for five days. Control animals received vehicle alone. Blood was collected on day five from 4 hour-fasted hamsters, 2 hours after a final treatment, for plasma lipid analysis. Total cholesterol, HDL-cholesterol, LDL-cholesterol, and triglycerides were determined using colorimetric enzymatic assays (Roche Diagnostic GmbH, Mannheim, Germany). HDL-cholesterol, LDL-cholesterol, and VLDL-cholesterol levels were also quantified using size exclusion chromatography on superpose-6 column using a SMART system (Pharmacia). Lipoprotein distribution was calculated assuming a Gaussian distribution for each peak, using a nonlinear, least-squares curve-fitting procedure to calculate the area under the curve. Compound concentration was also determined in plasma.
# [4] = 30 mg/kg food admix of compound
smiles,measurement,setting,value
CCCCOc1ncc(C(=O)N[C@@H]2CCCC[C@H]2O)cc1-c1cc(C(F)(F)F)ccc1F,melting point,,172 to 178 °C
"O=C(N[C@@H]1CCCC[C@H]1O)c1cnc(OCC2CC2)c(-c2ccc(Cl)cc2)c1 [5-(4-chloro-phenyl)-6-cyclopropylmethoxy-N-((1R,2R)-2-hydroxy-cyclohexyl)-nicotinamide]",HDL Cholesterol levels [AUC as % compared to control],[1]; [4],+84%
same,HDL Cholesterol levels [AUC as % compared to control],[2],+30%
"O=C(N[C@@H]1CCCC[C@H]1O)c1cnc(OCC(F)(F)F)c(-c2ccc(Cl)cc2)c1 [5-(4-chloro-phenyl)-N-((1R,2R)-2-hydroxy-cyclohexyl)-6-(2,2,2-trifluoroethoxy)-nicotinamide]",HDL Cholesterol levels [AUC as % compared to control],[2],+78%
same,HDL Cholesterol levels [AUC as % compared to control],[3],+69%
"COCCOc1ncc(C(=O)N[C@@H]2CCCC[C@H]2O)cc1-c1ccc(Cl)cc1 [5-(4-chloro-phenyl)-N-((1R,2R)-2-hydroxy-cyclohexyl)-6-(2-methoxy-ethoxy)-nicotinamide]",HDL Cholesterol levels [AUC as % compared to control],[1]; [4],+50%
"O=C(N[C@@H]1CCCC[C@H]1O)c1cnc(OCC2CC2)c(-c2ccc(F)cc2)c1 [6-cyclopropylmethoxy-5-(4-fluoro-phenyl)-N-((1R,2R)-2-hydroxy-cyclohexyl)-nicotinamide]",HDL Cholesterol levels [AUC as % compared to control],[2],+35%
"O=C(N[C@@H]1CCCC[C@H]1O)c1cnc(Oc2ccccc2Cl)c(-c2ccc(Cl)cc2)n1 [Example 39, 5-(2-Chloro-phenoxy)-6-(4-chloro-phenyl)-pyrazine-2-carboxylic acid ((1R,2R)-2-hydroxy-cyclohexyl)-amide]",melting point,,154 to 155 °C
C[C@](O)(CNC(=O)c1cnc(OCC2CC2)c(-c2ccc(F)cc2)c1)C1CC1 [N—((R)-2-cyclopropyl-2-hydroxy-propyl)-6-cyclopropylmethoxy-5-(4-fluorophenyl)-nicotinamide],HDL Cholesterol levels [AUC as % compared to control],[2],+73%
"Cc1c(C(=O)NN2CCCCC2)nn(-c2ccc(Cl)cc2Cl)c1-c1ccc(Cl)cc1 [Rimonabant, reference compound]",HDL Cholesterol levels [AUC as % compared to control],[1]; 10 mg/kg food admix,+11%
